Literature values in US20250302745A1, “COMPOSITIONS COMPRISING VANCOMYCIN” (Arecor Limited, priority 2022, published 2025).

System: animal
Conditions: excipients of VancoReady; black box warning

| finding in animal reproductive studies | Compound |
| --- | --- |
| cause fetal malformations | CC(=O)N[C@H](C)C(=O)O [N-acetyl-D-alanine] |
| cause fetal malformations | PEG400 |
